# Measured values: patent US12077503B2, “Substituted cyclic amides and their use as herbicides” (FMC CORPORATION, priority 2015, dated 2024)
# Experiments:
# Assay type in all cases: in vivo
# [1] = tested on: ryegrass, Italian (Italian ryegrass, Lolium multiflorum); test: Test A postemergence; conditions: Lolium multiflorum, post-emergence, 240 h, 125 g ai/ha, postemergence, visual injury vs untreated controls after approx. 10 d; 0 = no effect, 100 = complete control; read-out: Ryegrass, Italian plant response rating (0 to 100 scale)
# Outline: (§1)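 Preemergence soil spray on seeded pots or post-emergence spray on 1–2 leaf plants, in loam–sand blend. Greenhouse ~10 d. Visual rating 0–100 against untreated plants.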
# corn (Zea mays) = test: Test A postemergence; conditions: Zea mays, post-emergence, 240 h
# Outline: as §1
# [2] = tested on: giant foxtail (Setaria faberii); test: Test A postemergence; conditions: Setaria faberi, post-emergence, 240 h
# Outline: as §1
# [3] = tested on: pigweed (Amaranthus retroflexus); test: Test A postemergence; conditions: Amaranthus retroflexus, post-emergence, 240 h, 125 g ai/ha, postemergence, visual injury vs untreated controls after approx. 10 d; 0 = no effect, 100 = complete control; read-out: Pigweed plant response rating (0 to 100 scale)
# Outline: as §1
# [4] = tested on: blackgrass (Alopecurus myosuroides); test: Test A postemergence; conditions: Alopecurus myosuroides, post-emergence, 240 h
# Outline: as §1
# Kochia (Kochia scoparia) [5] = test: Test A postemergence; conditions: Bassia scoparia, post-emergence, 240 h
# Outline: as §1
# [6] = tested on: wheat (Triticum aestivum); test: Test A postemergence; conditions: Triticum aestivum, post-emergence, 240 h, 125 g ai/ha, postemergence, visual injury vs untreated controls after approx. 10 d; 0 = no effect, 100 = complete control; read-out: Wheat plant response rating (0 to 100 scale)
# Outline: as §1
# [7] = tested on: barnyardgrass (Echinochloa crus-galli); test: Test A postemergence; conditions: Echinochloa crus-galli, post-emergence, 240 h
# Outline: as §1
# [8] = tested on: ragweed (common ragweed, Ambrosia elatior); test: Test A postemergence; conditions: Ambrosia artemisiifolia, post-emergence, 240 h, 125 g ai/ha, postemergence, visual injury vs untreated controls after approx. 10 d; 0 = no effect, 100 = complete control; read-out: Ragweed plant response rating (0 to 100 scale)
# Outline: as §1
# [9] = tested on: Galium (catchweed bedstraw, Galium aparine); test: Test A postemergence; conditions: Galium, post-emergence, 240 h
# Outline: as §1
# [10] = tested on: sedge, umbrella (small-flower umbrella sedge, Cyperus difformis); test: Test B flooded paddy test; conditions: Cyperus difformis, 250 g ai/ha, Flood; 0 to 100 scale where 0 is no effect and 100 is complete control; read-out: Sedge, Umbrella plant response rating
# Outline: (§2)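 Compound goes directly into floodwater once pots are flooded 3 cm above soil, targeting plants at two leaves; the water depth is then held for the test duration. Plants sit 13–15 d in a greenhouse and are rated visually, 100 denoting complete control.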
# rice (Oryra sativa) = test: Test B flooded paddy test; conditions: Oryza sativa, 250 g ai/ha, Flood; 0 to 100 scale where 0 is no effect and 100 is complete control; read-out: Rice plant response rating
# Outline: as §2
# [11] = tested on: ducksalad (Heteranthera limosa); test: Test B flooded paddy test; conditions: Heteranthera limosa, 250 g ai/ha, Flood; 0 to 100 scale where 0 is no effect and 100 is complete control; read-out: Ducksalad plant response rating
# Outline: as §2
# [12] = tested on: barnyardgrass (Echinochloa crus-galli); test: Test B flooded paddy test; conditions: Echinochloa crus-galli, 250 g ai/ha, Flood; 0 to 100 scale where 0 is no effect and 100 is complete control; read-out: Barnyardgrass plant response rating
# Outline: as §2
# [13] = tested on: ryegrass, Italian (Italian ryegrass, Lolium multiflorum); test: Test A preemergence; conditions: Lolium multiflorum, pre-emergence, 240 h, 0 to 100 scale where 0 is no effect and 100 is complete control, read-out: Ryegrass, Italian plant response rating
# Outline: as §1
# [14] = tested on: giant foxtail (Setaria faberii); test: Test A preemergence; conditions: Setaria faberi, pre-emergence, 240 h, 0 to 100 scale where 0 is no effect and 100 is complete control, read-out: Foxtail, Giant plant response rating
# Outline: as §1
# [15] = tested on: pigweed (Amaranthus retroflexus); test: Test A preemergence; conditions: Amaranthus retroflexus, pre-emergence, 240 h, 0 to 100 scale where 0 is no effect and 100 is complete control, read-out: Pigweed plant response rating
# Kochia (Kochia scoparia) [16] = test: Test A preemergence; conditions: Bassia scoparia, pre-emergence, 240 h, 0 to 100 scale where 0 is no effect and 100 is complete control, read-out: Kochia plant response rating
# Outline: as §1
# [17] = tested on: barnyardgrass (Echinochloa crus-galli); test: Test A preemergence; conditions: Echinochloa crus-galli, pre-emergence, 240 h, 0 to 100 scale where 0 is no effect and 100 is complete control, read-out: Barnyardgrass plant response rating
# Outline: as §1
# [18] = tested on: ragweed (common ragweed, Ambrosia elatior); test: Test A preemergence; conditions: Ambrosia artemisiifolia, pre-emergence, 240 h, 0 to 100 scale where 0 is no effect and 100 is complete control, read-out: Ragweed plant response rating
# Outline: as §1
# [19] = 125 g ai/ha, preemergence, approx. 10 d
compound,measurement,setting,value
CN1C[C@H](c2ccc(C(F)(F)F)c(O)c2)[C@@H](C(=O)Nc2cccc(F)c2F)C1=O [Compound 1173],pest or weed control at 125 g/ha,[1],20%
same,plant injury at 125 g/ha,"corn (Zea mays); 125 g ai/ha, postemergence, visual injury vs untreated controls after approx. 10 d, 0 = no effect, 100 = complete control, read-out: Corn plant response rating (0 to 100 scale)",0%
same,"Corn plant response rating (crop injury, 0 = no effect, 100 = complete kill) at 31 g/ha","corn (Zea mays); Postemergence, 31 g ai/ha, visual injury after approx. 10 d, 0 to 100 scale, 0 no effect, 100 complete control",0%
same,pest or weed control at 125 g/ha,"[2]; 125 g ai/ha, postemergence, visual injury vs untreated controls after approx. 10 d, 0 = no effect, 100 = complete control, read-out: Foxtail, Giant plant response rating (0 to 100 scale)",80%
same,pest or weed control at 31 g/ha,"[2]; Postemergence, 31 g ai/ha, visual injury after approx. 10 d, 0 to 100 scale, 0 no effect, 100 complete control, read-out: Plant response rating, Foxtail, Giant",70%
same,pest or weed control at 125 g/ha,[3],50%
same,pest or weed control at 125 g/ha,"[4]; 125 g ai/ha, postemergence, visual injury vs untreated controls after approx. 10 d, 0 = no effect, 100 = complete control, read-out: Blackgrass plant response rating (0 to 100 scale)",0%
same,pest or weed control at 31 g/ha,"[4]; Postemergence, 31 g ai/ha, visual injury after approx. 10 d, 0 to 100 scale, 0 no effect, 100 complete control, read-out: Plant response rating, Blackgrass",0%
same,pest or weed control at 125 g/ha,"Kochia (Kochia scoparia) [5]; 125 g ai/ha, postemergence, visual injury vs untreated controls after approx. 10 d, 0 = no effect, 100 = complete control, read-out: Kochia plant response rating (0 to 100 scale)",50%
same,pest or weed control at 31 g/ha,"Kochia (Kochia scoparia) [5]; Postemergence, 31 g ai/ha, visual injury after approx. 10 d, 0 to 100 scale, 0 no effect, 100 complete control, read-out: Plant response rating, Kochia",30%
same,plant injury at 125 g/ha,[6],0%
same,pest or weed control at 125 g/ha,"[7]; 125 g ai/ha, postemergence, visual injury vs untreated controls after approx. 10 d, 0 = no effect, 100 = complete control, read-out: Barnyardgrass plant response rating (0 to 100 scale)",70%
same,pest or weed control at 31 g/ha,"[7]; Postemergence, 31 g ai/ha, visual injury after approx. 10 d, 0 to 100 scale, 0 no effect, 100 complete control, read-out: Plant response rating, Barnyardgrass",50%
same,pest or weed control at 125 g/ha,[8],10%
same,pest or weed control at 125 g/ha,"[9]; 125 g ai/ha, postemergence, visual injury vs untreated controls after approx. 10 d, 0 = no effect, 100 = complete control, read-out: Galium plant response rating (0 to 100 scale)",50%
same,pest or weed control at 31 g/ha,"[9]; Postemergence, 31 g ai/ha, visual injury after approx. 10 d, 0 to 100 scale, 0 no effect, 100 complete control, read-out: Plant response rating, Galium",0%
same,pest or weed control at 250 g/ha,[10],0%
same,pest or weed control at 250 g/ha,rice (Oryra sativa),25%
same,pest or weed control at 250 g/ha,[11],90%
same,pest or weed control at 250 g/ha,[12],60%
same,pest or weed control at 31 g/ha,"[13]; 31 g ai/ha, Preemergence",0%
same,pest or weed control at 125 g/ha,[13]; [19],30%
same,pest or weed control at 31 g/ha,"[14]; 31 g ai/ha, Preemergence",30%
same,pest or weed control at 125 g/ha,[14]; [19],80%
same,pest or weed control at 31 g/ha,"[15]; 31 g ai/ha, Preemergence",0%
same,pest or weed control at 125 g/ha,[15]; [19],0%
same,pest or weed control at 31 g/ha,"Kochia (Kochia scoparia) [16]; 31 g ai/ha, Preemergence",0%
same,pest or weed control at 125 g/ha,Kochia (Kochia scoparia) [16]; [19],20%
same,pest or weed control at 31 g/ha,"[17]; 31 g ai/ha, Preemergence",60%
same,pest or weed control at 125 g/ha,[17]; [19],90%
same,pest or weed control at 31 g/ha,"[18]; 31 g ai/ha, Preemergence",0%
same,pest or weed control at 125 g/ha,[18]; [19],40%
